{"source": "patent EP2710378B1", "about": "“METHOD TO PROGNOSE VIRAL INFECTION BY MEASURING T CELL RESPONSE OR AUTO-ANTIBODIES TO APOPTOTIC EPITOPES” (Università degli Studi di Roma \"La Sapienza\", priority 2011, dated 2012)", "tested_on": "CD8+pentamer+ TEM cells", "experiment": "Cross-presentation of apoptotic cells", "format": "cell-based, patients with acute HCV infection", "settings": "DCs pulsed with apoptotic T cells previously treated with the inhibitor; five independent patients", "method": "[…]. Then, cells were induced to apoptosis by incubation with 500 ng/ml anti-Fas (anti-CD95 mAb [clone CH11], Upstate Biotechnology) for at least 6 h. Apoptotic cells were determined by staining with Annexin- V (ApoAlert Apoptosis Kit, Clontech Laboratories Inc), PI (Sigma-Aldrich) and flow-cytometry analysis. PBMCs were double-stained with pentamers and mAb to CD8 and cultured with iDCs that had been pulsed or not with apoptotic cloned T cells. After 6-8 h, cells were tested for their capacity to produce IL-17 and IFN-γ by intracellular cytokine staining (ICS) as described above. Cells were washed, acquired with a FACSCanto flow cytometer and analyzed with FACSDiva analysis software (Becton Dickinson) or FlowJo software (Treestar).\nIt is for interest the finding that fresh apoptotic epitope-specific CD8^+pentamer^+ TEM cells promptly produced IFN-γ or IL-17 ex vivo within a few hours of contact with DCs that had been pulsed with apoptotic T cells (i.e., through the cross-presentation mechanism) (Figure 25A,B). […] This phenomenon was confirmed in five independent patients (Figure 25B). The frequencies of apoptotic epitope-specific CD8^+ T cells (but not those of viral epitope-specific CD8^+ T cells [data not shown]) correlated with the number of circulating apoptotic T cells (Figure 25C). […]", "data": [{"smiles": "COC(=O)CC[C@H](NC(=O)[C@H](CC(=O)OC)NC(=O)OCc1ccccc1)C(=O)N[C@H](C(=O)N[C@@H](CC(=O)OC)C(=O)CF)C(C)C", "note": "[C3I, Z-DEVD-FMK]", "values": [{"measurement": "IFN-γ or IL-17 production", "result": "marked decrease"}]}]}
